{
  "source": "patent US5585355A",
  "about": "“Method for increasing blood-ocular barrier permeability with permeabilizer peptides” (Alkermes, Inc., priority 1994, dated 1996)",
  "key": {"[1]": {"test_system": "blood-ocular barrier", "details": "for Uptake of [14C]-sucrose, % of plasma concentration (W/W) / KIN, unidirectional transport rate of [14C]-sucrose: A-7 1 μg/kg; for KIN, unidirectional transport rate of [14C]-sucrose: 3.0 min to 4.5 min", "method": "Adult Hartley guinea pigs of either sex (250-300 g) were used.\nAnimals were anaesthetized with 6 mg/kg xylazine (Rompun®, Mobay Corp., Shawnee, Kans.) and 30 mg/kg ketamine (Vetacet®, Abeco Co., Inc., Fort Dodge, Iowa) before surgically exposing the neck vessels. […] The technique is briefly summarized here. A fine polyethylene catheter connected to the extracorporeal perfusion system by silicon tubings was inserted into the right common carotid artery. Immediately after the start of the perfusion, the contralateral carotid artery was ligated and both jugular veins cut to allow free drainage of the perfusate.\nAll tubing was low gas permeable silicon, and all metal was medical grade stainless steel. The temperature and perfusion pressure were continuously recorded, and the acid-base status frequently monitored. Perfusion pressure was kept slightly above the animal's blood pressure to eliminate any possible ingress from the systemic circulation.\nIsotopically labeled [^14 C]-sucrose was introduced into the perfusion circuit after the 5 minute infusion at a rate of 0.4 to 0.6 μCi/ml/min, over periods ranging from 1.5 min to 4.5 min. In all experiments, the perfusion was terminated by severing the right common carotid artery and decapitating the animal.\nThe eyes were enucleated and the lenses rapidly excised via a lateral approach 1.5 mm posteriorly to the limbus. The lenses were blotted on filter paper to remove any adhering aqueous humor and to avoid epithelial contamination by aqueous radioactivity. Corneas were dissected circumferentially about 0.5 mm anteriorly to the limbus. After removal of the anterior segment of the eye, the vitreous body was dissected from the retinal surface. Retinas were scooped from the lying epithelium. All tissues were blotted after dissection to minimize contamination by adjacent tissue layers and/or fluids. Samples of plasma, aqueous humor, lens, cornea, retina and posterior vitreous were treated with 2 ml Beckman Tissue Solubilizer (BTS)-450, and 16 ml of scintillant (Beckman Ready Organic, Fullerton, Calif.). Radioactivity was determined in a Beckman LS-7500 liquid scintillation spectrometer.\n(When data are expressed as percentages the ratios were multiplied by 100.) The following equations were used to calculate ratios:\nCaqueous or Cvitreous /Cplasma =(DPM/ml aqueous or vitreous)/(DPM/ml plasma)\nClens or Ccornea or Cretina /Cplasma =(DPM/g lens or cornea or retina)/(DPM/ml plasma)\nMultiple-time uptake series were performed, and the unidirectional transport rate constant, KIN, and initial volume of tracer distribution, VI, were calculated using the following equations where T is the perfusion time:\nKIN (plasma-aqueous or vitreous)=[Caqueous or vitreous /Cplasma ]T+VI (aqueous or vitreous/plasma)\nKIN (plasma-lens, cornea or retina)=[Clens, cornea or retina /Cplasma ]T+VI (lens cornea or retina/plasma)\nThe respective KIN and VI values were graphically estimated by linear regression analysis as a slope and ordinate intercept of the line corresponding to the best linear fit to experimental data points for the time period when there was no significant departure from linearity in studied compartments.\nResults are presented as means±SE."}, "[2]": {"test": "Effect of A-7 on physiological functions", "format": "in vivo, guinea pig", "details": "for Blood Pressure / Body Weight / Heart Rate / Respirations/Minute: within first minute of infusion"}},
  "note": "Where “and” joins values, the source holds several entries; their conditions need not be identical. Equal values may be shown once. Read-outs that look alike come from different tables or passages of the source.",
  "data": [
    {"substance": "Arginine-Proline-Hydroxyproline-Glycine-Thienylalanine-Serine-Proline-4-Me-Tyrosine-(CH2 NH)Arginine [A-7]", "values": [
      {"measurement": "Uptake of [14C]-sucrose, % of plasma concentration (W/W)", "setting": "[1]; aqueous, 1.5 min after sucrose added", "result": "0.19 ± 0.01 % of Plasma Concentration (W/W"},
      {"measurement": "Uptake of [14C]-sucrose, % of plasma concentration (W/W)", "setting": "[1]; aqueous, 3.0 min after sucrose added", "result": "0.41 ± 0.18 % of Plasma Concentration (W/W"},
      {"measurement": "KIN, unidirectional transport rate of [14C]-sucrose", "setting": "[1]; aqueous", "result": "9.13 ± 3.66", "unit": "µL/min/g"},
      {"measurement": "Uptake of [14C]-sucrose, % of plasma concentration (W/W)", "setting": "[1]; aqueous, 4.5 min after sucrose added", "result": "1.79 ± 0.68 % of Plasma Concentration (W/W"},
      {"measurement": "Uptake of [14C]-sucrose, % of plasma concentration (W/W)", "setting": "[1]; cornea, 1.5 min after sucrose added", "result": "0.48 ± 0.19 % of Plasma Concentration (W/W"},
      {"measurement": "Uptake of [14C]-sucrose, % of plasma concentration (W/W)", "setting": "[1]; cornea, 3.0 min after sucrose added", "result": "1.01 ± 0.23 % of Plasma Concentration (W/W"},
      {"measurement": "KIN, unidirectional transport rate of [14C]-sucrose", "setting": "[1]; cornea", "result": "16.20 ± 3.42", "unit": "µL/min/g"},
      {"measurement": "Uptake of [14C]-sucrose, % of plasma concentration (W/W)", "setting": "[1]; cornea, 4.5 min after sucrose added, an outlier of 0.5% not included", "result": "3.44 ± 1.40 % of Plasma Concentration (W/W"},
      {"measurement": "KIN for sucrose, times higher in the presence of A-7", "setting": "[1]; lens", "result": 6.5, "unit": "times"},
      {"measurement": "Uptake of [14C]-sucrose, % of plasma concentration (W/W)", "setting": "[1]; lens, 1.5 min after sucrose added", "result": "0.03 ± 0.02 % of Plasma Concentration (W/W"},
      {"measurement": "Uptake of [14C]-sucrose, % of plasma concentration (W/W)", "setting": "[1]; lens, 3.0 min after sucrose added", "result": "0.05 ± 0.01 % of Plasma Concentration (W/W"},
      {"measurement": "KIN, unidirectional transport rate of [14C]-sucrose", "setting": "[1]; lens", "result": "0.130 ± 0.015", "unit": "µL/min/g"},
      {"measurement": "Uptake of [14C]-sucrose, % of plasma concentration (W/W)", "setting": "[1]; lens, 4.5 min after sucrose added", "result": "0.07 ± 0.01 % of Plasma Concentration (W/W"},
      {"measurement": "KIN for sucrose, times higher in the presence of A-7", "setting": "[1]; retina", "result": 6.7, "unit": "times"},
      {"measurement": "Uptake of [14C]-sucrose, % of plasma concentration (W/W)", "setting": "[1]; retina, 1.5 min after sucrose added, 5 min arterial infusion", "result": "0.95 ± 0.30 % of Plasma Concentration (W/W"},
      {"measurement": "Uptake of [14C]-sucrose, % of plasma concentration (W/W)", "setting": "[1]; retina, 3.0 min after sucrose added, 5 min arterial infusion", "result": "1.76 ± 0.50 % of Plasma Concentration (W/W"},
      {"measurement": "KIN, unidirectional transport rate of [14C]-sucrose", "setting": "[1]; retina", "result": "4.27 ± 0.9", "unit": "µL/min/g"},
      {"measurement": "Uptake of [14C]-sucrose, % of plasma concentration (W/W)", "setting": "[1]; retina, 4.5 min after sucrose added, 5 min arterial infusion", "result": "2.26 ± 0.56 % of Plasma Concentration (W/W"},
      {"measurement": "Uptake of [14C]-sucrose, % of plasma concentration (W/W)", "setting": "[1]; vitreous, 1.5 min after sucrose added", "result": "0.03 ± 0.018 % of Plasma Concentration (W/W"},
      {"measurement": "Uptake of [14C]-sucrose, % of plasma concentration (W/W)", "setting": "[1]; vitreous, 3.0 min after sucrose added", "result": "0.05 ± 0.01 % of Plasma Concentration (W/W"},
      {"measurement": "KIN, unidirectional transport rate of [14C]-sucrose", "setting": "[1]; vitreous", "result": "0.84 µL/min/g and 0.84 ± 0.25 µL/min/g"},
      {"measurement": "Uptake of [14C]-sucrose, % of plasma concentration (W/W)", "setting": "[1]; vitreous, 4.5 min after sucrose added", "result": "0.18 ± 0.05 % of Plasma Concentration (W/W"},
      {"measurement": "Effect on sucrose uptake by vitreous", "setting": "[1]; vitreous, time points earlier than 4.5 minutes of VEP", "result": "did not affect"},
      {"measurement": "Changes in body weight, respiration rate, blood pressure and heart rate", "setting": "[2]; A-7 1 μg/kg", "result": "no significant changes"},
      {"measurement": "Blood Pressure", "setting": "[2]; A-7 1 μg/kg body weight", "result": 75, "unit": "mm Hg"},
      {"measurement": "Body Weight", "setting": "[2]; A-7 1 μg/kg body weight", "result": 283, "unit": "g"},
      {"measurement": "Heart Rate", "setting": "[2]; A-7 1 μg/kg body weight", "result": 170, "unit": "Beats Per Minute"},
      {"measurement": "Respirations/Minute", "setting": "[2]; A-7 1 μg/kg body weight", "result": 26},
      {"measurement": "Blood Pressure", "setting": "[2]; A-7 3 μg/kg body weight", "result": 90, "unit": "mm Hg"},
      {"measurement": "Body Weight", "setting": "[2]; A-7 3 μg/kg body weight", "result": 283, "unit": "g"},
      {"measurement": "Heart Rate", "setting": "[2]; A-7 3 μg/kg body weight", "result": 200, "unit": "Beats Per Minute"},
      {"measurement": "Respirations/Minute", "setting": "[2]; A-7 3 μg/kg body weight", "result": 44}
    ]}
  ]
}
